Test results as given in patent US20250195542A1, “METABOLIC DISEASE THERAPEUTIC AGENT OR PREVENTIVE AGENT” (Peking University, priority 2022, published 2025).
Residue numbers refer to the chain shown, from its start. pKd: −log10 of the molar value.

Key:
RDH10 [1] = molecular target: T1, RDH10 (Mus musculus, UniProt Q8VCH7); experiment: Protein fishing (pull-down) with molecular probe and proteomics analysis; format: binding, C57BL/6J mice; settings: 400 μM ACS against 40 μM ACS-biotin
T1 construct: Take approximately 50 mg of liver tissue from C57BL/6J mice and add 1 mL of RIPA lysis buffer; from tissue; host or cells: mouse liver (C57BL/6J) lysate
T1 sequence (Q8VCH7 1-341): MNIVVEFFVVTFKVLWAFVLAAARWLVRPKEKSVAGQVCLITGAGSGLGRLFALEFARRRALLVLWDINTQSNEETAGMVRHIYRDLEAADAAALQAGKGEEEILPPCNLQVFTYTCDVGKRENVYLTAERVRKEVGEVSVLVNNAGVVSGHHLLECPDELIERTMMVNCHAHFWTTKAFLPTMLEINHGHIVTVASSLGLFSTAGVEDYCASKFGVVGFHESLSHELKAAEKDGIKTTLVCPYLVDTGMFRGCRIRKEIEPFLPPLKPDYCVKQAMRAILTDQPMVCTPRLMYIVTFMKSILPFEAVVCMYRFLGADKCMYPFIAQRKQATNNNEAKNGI
Method: • 1. Preparation of Liver Protein: Take approximately 50 mg of liver tissue from C57BL/6J mice and add 1 mL of RIPA lysis buffer. Lyse the proteins on ice, then centrifuge at 12,000 rpm for 30 minutes at 4° C. Collect the supernatant, measure the protein concentration using BCA method, and dilute to 1 mg/mL with PBS. • 2. Sample Preparation: Prepare new 1.5 mL EP tubes and divide them into control group, drug group, and competitive inhibition group. Add 100 μL of PBS solution containing 40 μM Biotin to the control group, 100 μL of PBS solution containing 40 μM ACS-biotin (prepared in Example 1) to the drug group, and 100 μL of PBS solution containing 40 μM ACS-biotin and 400 μM ACS to the competitive inhibition group. Then, add 100 μL of liver protein lysate (1 mg/mL) to each tube and incubate on a shaking incubator at 4° C. for 2 hours. • 3. Washing Streptavidin Beads: Add 100 μL of streptavidin beads to new 1.5 mL EP tubes and centrifuge at 2,700 rpm for 1 minute. Discard the supernatant and wash the beads with 100 μL of PBS three times. • 4. Binding and Washing: Add the solutions from step 2 to the washed streptavidin beads. Incubate on a shaking incubator at 4° C. for 2 hours, then centrifuge at 2,700 rpm for 1 minute. Discard the supernatant and wash the beads with 100 μL of PBS three times. • 5. Protein Elution: Add 50 μL of PBS to the beads, mix well, and then add 5×SDS-PAGE sample buffer. Boil for 5 minutes and centrifuge at 13,000 rpm for 5 minutes. Store the supernatant at −20° C. for SDS-PAGE gel electrophoresis. • 6. Protein Detection: Stain with Coomassie Brilliant Blue and cut the gel for proteomics analysis.

RDH10 protein = molecular target: T2, RDH10 protein (Homo sapiens, UniProt Q8IZV5); experiment: Surface plasmon resonance (SPR), Biacore T200; format: binding; settings: RDH10 immobilized on CM5 chip; 25S-Antcin C 0.78-25 μM; FIG. 15B
T2 sequence (Q8IZV5 1-341): T1 sequence (Q8VCH7 1-341) with K99N, P107H, R278K, V287I
Method: Using a Biacore T200 plasmon surface resonance instrument, RDH10 protein was immobilized on a CM5 sensor chip via an amine coupling reaction. The pH of the RDH10 protein was 4.5, and the final immobilization concentration was 50 μg/mL. The running buffer consisted of 50 mM Tris-Hcl buffer containing […] NaCl, 2 mM MgCl2, 0.05% Tween-20, and 5% DMSO. In the binding experiment, different concentrations of 25S-Antcin C (25, 12.5, 6.25, 3.12, 1.56, 0.78 μM) were dissolved in the running buffer. The flow rate was 30 μL/min, with a contact time of 60 seconds and a dissociation time of 60 seconds. Data were analyzed using Biacore software, and the kinetic analysis calculated the affinity constant (KD value).

RDH10 [2] = molecular target: T1, RDH10; experiment: Cellular thermal shift assay (CETSA / ITDRFCETSA); format: binding
Method: • 1. Mouse liver total protein (500 μg/mL) was incubated at room temperature for 2 hours with either 25S-Antcin C (100 μM) or an equal volume of DMSO. • 2. After incubation, the 25S-Antcin C-treated group and the DMSO control group were aliquoted into 13 PCR tubes, with 30 μL per tube, and placed on ice. • 3. In a PCR machine, a gradient heating program for CETSA was set up with 12 temperature points (37, 41, 45, 49, 53, 57, 61, 65, 69, 73, 77, 81° C.). The 13 samples from the 25S-Antcin C-treated group and the DMSO control group were heated at each temperature point for 3 minutes, then immediately taken out and incubated at room temperature for 3 minutes, followed by rapid cooling on ice. • 4. The samples were transferred to 1.5 mL EP tubes and centrifuged at 15,000 rpm for 40 minutes at 4° C. • 5. The supernatant was transferred to new EP tubes, mixed with 5×SDS-PAGE loading buffer, and boiled for 5 minutes to denature the proteins. Western Blot was then performed.

L02 human liver cells = experiment: Oleic acid-palmitic acid induced lipid deposition with RDH10 siRNA knockdown, L02 cells (Oil Red O); format: cell-based; settings: 20 μM
[3] = system: mouse primary liver cells; experiment: Oleic acid-palmitic acid induced lipid deposition with RDH10 siRNA knockdown, mouse primary liver cells (Oil Red O); format: cell-based; settings: 20 μM
NASH in MCD model mice [4] = experiment: H&E liver histology in MCD mice, Example 12; format: in vivo, C57BL/6J mice; settings: oral 4 weeks, 10 and 20 mg/kg, better than obeticholic acid 10 mg/kg, FIG. 17A
Method: (§1) Four-week-old male C57BL/6J mice were purchased from the Experimental Animal Center, Peking University Health Science Center. The mice were randomly divided into groups, with 10 mice per group. Methionine choline-deficient diet (MCD) was used to induce NASH, forming the MCD model mice. The model mice were treated with an oral administration of drugs for 4 weeks. After the final treatment, the mice were fasted overnight, and then sacrificed. Serum and liver tissue samples were stored at −80° C., which could be compared with untreated MCD mice (“MCD”) and normal mice (“Nor” or “Normal”). The dosing amounts for each group were as follows: low-dose 25S-Antcin C (“ACS-L”): 10 mg/kg; high-dose 25S-Antcin C (“ACS-H”): 20 mg/kg; obeticholic acid (“OCA”): 10 mg/kg.
After the final treatment, the mice were sacrificed, and the liver tissue samples were fixed overnight in 4% paraformaldehyde, embedded in paraffin, and sectioned. […]

NASH in MCD model mice [5] = experiment: Serum ALT and AST in MCD mice, Example 12; format: in vivo, C57BL/6J mice; settings: oral 4 weeks, 10 and 20 mg/kg, better than obeticholic acid 10 mg/kg, FIG. 17B
Method: as §1
After the final treatment and overnight fasting, mice were anesthetized, and blood was collected from the tail vein. Whole blood was allowed to stand for 2 hours, centrifuged at 6000 rpm for 10 minutes, and the supernatant was used to measure serum alanine aminotransferase (ALT) and aspartate aminotransferase (AST) levels using ALT assay kit and AST assay kit (Bote Biotech, Beijing).

[6] = cited from earlier work
[7] = oleic acid-palmitic acid, 24 hours, FIG. 16B

Row | Structure (SMILES) | competitive inhibition of probe binding to RDH10 protein (RDH10 [1]) | pKd (RDH10 protein) | RDH10 protein that did not precipitate (RDH10 [2]; 100 μM, among 53-69 °C) | stability of RDH10 protein at 61° C. (ITDRFCETSA) (RDH10 [2]; constant 61 °C, 0.01-1000 μM, FIG. 15D) | CETSA curve of RDH10 (RDH10 [2]; mouse liver total protein, 100 μM, 37-81 °C, compared to DMSO group, FIG. 15C) | effect on reducing lipid deposition in the RDH10 siRNA group (L02 human liver cells; RDH10 knockdown) | lipid droplets, Control siRNA group (L02 human liver cells; [7]) | effect on reducing lipid deposition in the RDH10 siRNA group ([3]; RDH10 knockdown) | lipid droplets, Control siRNA group [3, 7] | liver steatosis and ballooning (NASH in MCD model mice [4]) | serum ALT levels (NASH in MCD model mice [5]) | serum AST levels (NASH in MCD model mice [5]) | serious side effects in clinical trials [6]
1 | C=C(CC[C@@H](C)[C@H]1CC[C@H]2C3=C(C(=O)C[C@]12C)[C@@]1(C)CCC(=O)[C@@H](C)[C@@H]1C[C@@H]3O)[C@H](C)C(=O)O [25S-Antcin C] | reduces the binding of the molecular probe to the RDH10 protein | 5.08 | significant increase | increased with higher concentrations of 25S-Antcin C, stabilizing after 100 μM | shift in the CETSA curve | almost completely lost | significantly reduced in size | almost completely lost | significantly reduced in size | significantly reduced | significantly reduced | significantly reduced | –
2 | CC[C@H]1[C@@H](O)[C@@H]2[C@H](CC[C@]3(C)[C@@H]([C@H](C)CCC(=O)O)CC[C@@H]23)[C@@]2(C)CC[C@@H](O)C[C@@H]12 [obeticholic acid] | – | – | – | – | – | – | – | – | – | – | – | – | severe pruritus
